A short description of data set [1]: Stability. It counts as physicochemical.
In data set [2] the test system is IL-6. The experiment in a line: Inhibition of IL-6 production in splenocytes (ELISA). In kind it is cell-based, male Balb/c mice. The settings on record: Splenocyte, mouse splenocytes, Con A or LPS, 72 h, read-out: Percentage inhibition of cytokine production, IL-6. As for the experimental part: (§1) Anti-inflammatory activity of dysoline (1) was evaluated by inhibiting production of pro-inflammatory cytokines such as tumor necrosis factor-alpha (TNF-α) and interleukin-6 (IL-6). […] The TNF-α inhibition activity of dysoline was compared with rohitukine.
(§2) Splenocytes of male Balb/c mice were seeded into three to four wells of a 96-well flat-bottom microtiter plate (Nunc) at 2×10^6 cells/ml. Cells were incubated with different concentrations of dysoline (0.01 μM-100 μM) along with Con A (2.5 μg/well) or LPS (1 μg/ml) for 72 h at 37° C. with 5% CO2 in CO2 incubator. The culture supernatants were harvested and the measurement of cytokines (TNF-α and IL-6) in the culture supernatants was carried out using commercial kits as per manufacturer's instructions by using ELISA kits (R&D, USA) (Life Sci. 2007, 80, 1525-1538; J. Immunol. Methods 1983, 65, 55-63).
Background: ELISA stands for enzyme-linked immunosorbent assay.

Data set [3] concerns Colo205 (colon). As to the kind of experiment: MTT cell viability assay, Colo205. The settings on record: Homo sapiens, COLO 205, 48 h treatment. It counts as cell-based. As for the experimental part:
(§3) Anticancer activity of dysoline (1) along with rohitukine was evaluated using MTT cell viability assay on […] cancer cell lines viz. Colo205 (colon), HCT116 (colon), HT1080 (fibrosarcoma), NCIH322 (lung), A549 (lung), Molt-4 (leukemia) and HL60 (leukemia).
(§4) The cell were originated from The European Collection of Cell Cultures (ECACC, UK) and purchased through Sigma-Aldrich India.
(§5) The MTT assay was used to assess the effect of the test molecules on cell viability. Cell viability on eight cell lines viz. Colo205 (colon), HCT116 (colon), HT1080 (fibrosarcoma), NCIH322 (lung), A549 (lung), Molt-4 (leukemia) and HL60 (leukemia) was investigated. In each well of a 96-well plate, 3×10^3 cells were grown in 100 μL of medium. After 24 h, each test molecules were added to achieve a final concentration of 10 to 0.01 μmol/L, respectively. After 48 h of treatment, 20 μL of 2.5 mg/mL MTT (Organics Research, Inc.) solution in phosphate buffer saline was added to each well. After […], supernatant was removed and formazan crystals were dissolved in 200 μL of DMSO. Absorbance was then measured at 570 nm using an absorbance plate reader (Bio-Rad Microplate Reader). Data are expressed as the percentage of viable cells in treated relative to non-treated conditions. Each experiment was repeated thrice and data was expressed as mean±SD of three independent experiments (Mol. Cancer Ther. 2010, 9, 358-368).
In general terms: Formazan colour is commonly taken as a measure of viable cells.

Data set [4] relates to NCIH322 (lung). The experiment in a line: MTT cell viability assay, NCIH322. In kind it is cell-based. The settings on record: NCI-H322, 48 h treatment. As for the experimental part:
as §3, §4, §5

The subject of data set [5] is HL60 (leukemia). As to the kind of experiment: MTT cell viability assay, HL-60. The settings on record: Homo sapiens, HL-60 (leukemia), 48 h treatment. In kind it is cell-based. The protocol: as §3, §4, §5
In data set [6] the test system is TNF-α. The experiment in a line: Inhibition of TNF-α production in splenocytes (ELISA). The settings on record: 72 h, Con A or LPS; for inhibition at 0.01 µM / inhibition at 0.1 µM / inhibition at 1 µM / inhibition at 10 µM / inhibition at 100 µM: Mus musculus, Splenocyte, read-out: Percentage inhibition of cytokine production, TNF-α. It counts as cell-based, male Balb/c mice. As for the experimental part: as §1, §2

Data set [7] has as its system HT1080 (fibrosarcoma). As to the kind of experiment: MTT cell viability assay, HT1080. In kind it is cell-based. The settings on record: 48 h treatment. As for the experimental part: as §3, §4, §5
In data set [8] the test system is HCT116 (colon). As to the kind of experiment: MTT cell viability assay, HCT116. It counts as cell-based. The settings on record: Homo sapiens, HCT-116, 48 h treatment. As for the experimental part: as §3, §4, §5
The subject of data set [9] is A549 (lung). The experiment in a line: MTT cell viability assay, A549. The settings on record: Homo sapiens, 48 h treatment. It counts as cell-based. The protocol: as §3, §4, §5
Data set [10] is described as follows: Water solubility. In kind it is physicochemical.
Data set [11] deals with Molt-4 (leukemia). The experiment in a line: MTT cell viability assay, MOLT-4. It counts as cell-based. The settings on record: Homo sapiens, 48 h treatment. As for the experimental part:
as §3, §4, §5

In data set [12] the test system is HL-60 promyelocytic leukemia. The settings on record: human HL-60 promyelocytic leukemia; cited from earlier work.
The test system of data set [13] is HCT-116 colon cancer cells. The settings on record: cited from earlier work.

The text below walks through data of US9776989B2, “Chromone alkaloid dysoline for the treatment of cancer and inflammatory disorders” (Council of Scientific & Industrial Research, priority 2013, dated 2017).

Usually inhibition stands for how much of the control response was suppressed. As usually defined, the IC50 is the concentration that inhibits the measured activity by half. High values mean weaker potency, low ones greater potency. For orientation: melting point means the temperature of the solid-liquid transition.

Bounds are passed on as bounds.

`Cc1cc(=O)c2c(O)c(C3CCN(C)CC3O)c(O)cc2o1` (centres unmarked) [Dysoline (1), 5,7-dihydroxy-6-(3-hydroxy-1-methylpiperidin-4-yl)-2-methyl-4H-chromen-4-one] registered a melting point of 310 to 315 °C. In data set [1], the stability result is “stable”. Besides, in data set [2], the inhibition at 0.01 µM was determined as 72%, the inhibition at 0.1 µM amounted to 83%, the inhibition at 1 µM turned out to be 83% and the inhibition at 10 µM was 89%. The inhibition at 100 µM in [2] is 99%. In addition, in data set [3], the IC50 was greater than 10 µM. In data set [4], this compound yielded an IC50 greater than 10 µM. Besides, inhibition in [5] was half-maximal at 10 µM (IC50). Moreover, in data set [6], the inhibition at 0.01 µM was found to be 28%, the inhibition at 0.1 µM worked out at 47%, the inhibition at 10 µM is 54% and the inhibition at 100 µM stood at 56%. Besides, the inhibition at 1 µM in data set [6] (1 μM) stood at 53%. The compound further gave an IC50 in [7] (Homo sapiens, HT-1080, 48 h) of 0.21 µM. Moreover, the IC50 in data set [8] was greater than 10 µM. Besides, the IC50 in data set [9] was greater than 10 µM. Further, the water solubility result in [10] is “good water solubility”. Also, the IC50 in data set [11] was greater than 10 µM.

In the case of `Cc1cc(=O)c2c(O)cc(O)c([C@H]3CCN(C)C[C@H]3O)c2o1` [Rohitukine, 5,7-dihydroxy-2-methyl-8-[4-(3-hydroxy-1-methyl)-piperidinyl]-4H-1-benzopyran-4-one], the cytotoxicity result in data set [12] and in [13] was “moderate cytotoxicity” each time. Also, the values for the inhibition at 0.01 µM in [2] and in [6] were 10% and 18%, respectively. For the same compound, the inhibition at 0.1 µM in data set [2] was determined as 30%; in data set [6], 22%. Also, the inhibition at 1 µM in data set [2] came to 80%; in data set [6] (1 μM), 32%. The inhibition at 10 µM in data set [2] amounted to 88%; in [6], 32%. Further, the inhibition at 100 µM in data set [2] came to 89%; in data set [6], 47%. For the same compound, the IC50 in [3] was greater than 10 µM; in data set [4], greater than 10 µM; in data set [5], 10 µM; in [7], greater than 10 µM; in data set [7] (Homo sapiens, HT-1080, 48 h) it was less than 10 µM; in data set [8], greater than 10 µM. The IC50 in [9] and in [11] was greater than 10 µM throughout. For the same compound, in data set [6] (1 μM, mouse splenocytes), the “Percentage inhibition of cytokine production, TNF-α” value stood at 28%.
